Literature values as cited in patent US20230149829A1, “ORAL COMPOSITIONS OF PLANTS THROUGH A DOUBLE EXTRACTION SYSTEM AND METHODS OF MAKING THE SAME” (Nulixir Inc., priority 2021, published 2023).

What was measured:
[1] = n-octanol and water; categorization assumed at pH=7 unless stated otherwise

Compound	log P [1]	inhibitory activity against fungi (many strains of fungi)
COc1cc2c(c(OC)c1OC)-c1c(cc3c(c1OC)OCO3)CC(C)C(C)C2 (single isomer, unassigned; (-)) [(−)-schisandrin B]	~4	
COC1=CC(=O)OC(/C=C/c2ccc(OC)cc2)C1 (stereo not drawn) [5,6-dihydroyangonin]	~2.5	
CC1=C(CO)C(=O)O[C@@H]([C@@H](C)[C@H]2CC[C@H]3[C@@H]4C[C@H](Cl)[C@]5(O)[C@@H](O)C=CC(=O)[C@]5(C)[C@H]4CC[C@]23C)C1 [6a-chloro-5b-hydroxywithaferin A]	~3.2	
COC1=CC(=O)O[C@@H](CCc2ccc3c(c2)OCO3)C1 [7,8-dihydromethysticin]	~2.2	
COc1ccc(CCc2cc(OC)cc(=O)o2)cc1 [7,8-dihydroyangonin]	~2.9	
COc1cc(/C=C\c2ccc(OC)c(O)c2)oc(=O)c1 [11-hydroxyyangonin]	~2.2	
COc1cc2c(c(OC)c1OC)-c1c(cc(OC)c(OC)c1OC)C[C@](C)(O)[C@@H](C)C2 [(+)-schisandrin]	~5	
COc1cc2c(c(OC)c1OC)-c1c(cc(OC)c(OC)c1OC)C[C@H](C)[C@H](C)C2 [(−)-schisandrin A]	~3.6	
O=CC=Cc1ccccc1 [Cinnamaldehyde]		strong inhibitory activity
CC(C)=C[C@@H]1CO[C@]23C[C@]4(CO2)[C@H](CC[C@@H]2[C@@]5(C)CC[C@H](O[C@@H]6OC[C@H](O)[C@H](O[C@@H]7O[C@H](CO)[C@@H](O)[C@H](O)[C@H]7O)[C@H]6O[C@@H]6O[C@@H](CO)[C@H](O)[C@H]6O)C(C)(C)[C@@H]5CC[C@]24C)[C@H]3[C@@]1(C)O [bacopasaponin C]	~2	
CC(C)=C[C@H]1C[C@](C)(O)[C@@H]2[C@H]3CC[C@@H]4[C@@]5(C)CC[C@H](O[C@@H]6OC[C@H](O)[C@H](O[C@@H]7O[C@H](CO)[C@@H](O)[C@H](O)[C@H]7O)[C@H]6O[C@@H]6O[C@@H](CO)[C@H](O)[C@H]6O)C(C)(C)[C@@H]5CC[C@@]4(C)[C@@]34CO[C@@]2(C4)O1 [bacopaside X]	~2.2	
CC(C)=C[C@H]1C[C@](C)(O)[C@H]2[C@H]3CC[C@@H]4[C@@]5(C)CC[C@H](O[C@@H]6O[C@H](CO)[C@@H](O)[C@H](O[C@@H]7O[C@H](CO)[C@@H](O)[C@H](O)[C@H]7O)[C@H]6O[C@@H]6O[C@@H](CO)[C@H](O)[C@H]6O)C(C)(C)[C@@H]5CC[C@@]4(C)[C@@]34CO[C@@]2(C4)O1 [bacoside A3]	~2.1	
CC(C)=CCC[C@](C)(O[C@@H]1O[C@H](CO[C@@H]2O[C@H](CO)[C@@H](O)[C@H](O)[C@H]2O)[C@@H](O)[C@H](O)[C@H]1O)[C@H]1CC[C@]2(C)[C@@H]1[C@H](O)C[C@@H]1[C@@]3(C)CC[C@H](O[C@@H]4O[C@H](CO)[C@@H](O)[C@H](O)[C@H]4O[C@@H]4O[C@H](CO)[C@@H](O)[C@H](O)[C@H]4O)C(C)(C)[C@@H]3CC[C@]12C [ginsenoside rb1]	~−1	
CC(C)=CCC[C@](C)(O[C@@H]1O[C@H](CO)[C@@H](O)[C@H](O)[C@H]1O)[C@H]1CC[C@]2(C)[C@@H]1[C@H](O)C[C@@H]1[C@@]3(C)CC[C@H](O)C(C)(C)[C@@H]3[C@@H](O[C@@H]3O[C@H](CO)[C@@H](O)[C@H](O)[C@H]3O)C[C@]12C [ginsenoside rg1]	~0.8	
COc1ccc(C23C=CC(O)CC2N(C)CC3)cc1OC (stereo not drawn) [mesembrenol]	~2.4	
COc1ccc([C@@]23C=CC(=O)C[C@@H]2N(C)CC3)cc1OC [mesembrenone]	~1.3	
COc1ccc([C@@]23CCC(=O)C[C@@H]2N(C)CC3)cc1OC [mesembrine]	~1.5	
CC(=O)OC1C=CC(=O)N(C(=O)CCc2ccccc2)C1 (stereo not drawn) [pipermethystine]	~1.8	
COc1cc([C@H]2Oc3cc(O)c4c(=O)c(O)c(-c5ccc(O)cc5)oc4c3O[C@@H]2CO)ccc1O [rhodiolin]	~2	
N#C[C@@]1(O[C@@H]2O[C@H](CO)[C@@H](O)[C@H](O)[C@H]2O)C=C[C@@H](O)C1 [tetraphyllin B]	~−2.5	
(R)-kawain	~2.7	
bacopaside B	~2.8	
hericerin	~6.4	
herinacine A	~2.5	
methylliberine	~−0.083	
schisandroside C	~1.6	
tortuosomine	~3	
